# Laboratory results from ChEMBL document CHEMBL1201862, “PubChem BioAssay data set” (2004).
# Activity calls are given as the source filed them. Cut-off read from the data, not from the text of the source, for most assays here: actives have a measured EC50 and inactives only a lower limit.
# Experiments:
# [1] = inhibitors of firefly luciferase expression or activity, dose response, H4 neuroglioma cells, luminescence (AID 1990); assay type: functional, cell-based
# [2] = Luminescence Cell-Based Dose Response HTS to Identify Inhibitors of 5'UTR Stem-Loop Driven Prion Protein mRNA Translation in H4 Neuroglioblastoma Cells. [Related pubchem assays: 1827 (Project Summary), 1813 (Primary HTS)]; assay type: functional
# [3] = inhibitors of SNCA 5'UTR-driven reporter translation, confirmation, H4 neuroglioma cells, luminescence (AID 1988); assay type: functional, cell-based
# Streptokinase A = biological target: T1, Streptokinase A (Streptococcus pyogenes serotype M1, UniProt P10520); test: S. pyogenes streptokinase expression inhibitors, potency, dose response, plasminogen activation absorbance, OD405 (AID 1914); assay type: functional, Streptococcus pyogenes M1 GAS;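 note: secreted streptokinase activity via plasminogen activation per viability signal from cell pellet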
# T1 sequence (P10520 whole entry): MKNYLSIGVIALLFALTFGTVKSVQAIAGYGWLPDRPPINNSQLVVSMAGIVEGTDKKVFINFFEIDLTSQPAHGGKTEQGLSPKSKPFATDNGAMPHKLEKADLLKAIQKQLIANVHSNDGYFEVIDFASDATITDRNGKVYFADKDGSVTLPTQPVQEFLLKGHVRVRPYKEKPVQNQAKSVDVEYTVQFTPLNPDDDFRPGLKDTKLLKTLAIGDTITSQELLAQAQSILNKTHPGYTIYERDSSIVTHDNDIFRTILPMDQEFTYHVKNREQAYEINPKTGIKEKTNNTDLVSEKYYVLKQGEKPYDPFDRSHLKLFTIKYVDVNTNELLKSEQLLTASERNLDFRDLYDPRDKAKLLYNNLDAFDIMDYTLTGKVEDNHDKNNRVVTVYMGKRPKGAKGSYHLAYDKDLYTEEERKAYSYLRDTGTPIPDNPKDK
# [4] = system: Streptococcus sp. 'group A'; test: growth inhibition of control SK(-) GAS strain, dose response, counter-screen for streptokinase expression inhibitor project, luminescence, kanamycin, BacTiterGlo, confirmation (AID 1900); assay type: functional, organism-based
# Streptococcus = test: Group A Streptococcus viability loss, dose response, counter-screen for streptokinase expression inhibitor project, luminescence, BacTiterGlo (AID 1915); assay type: functional, organism-based;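 note: potency for reduction of bacterial viability or growth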
# Cytochrome P450 3A4 = Cytochrome P450 3A4 (Homo sapiens, UniProt P08684);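 note: CYP3A4 tested as one member of a cytochrome P450 panel screen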
# Cytochrome P450 3A4, sequence (P08684 whole entry): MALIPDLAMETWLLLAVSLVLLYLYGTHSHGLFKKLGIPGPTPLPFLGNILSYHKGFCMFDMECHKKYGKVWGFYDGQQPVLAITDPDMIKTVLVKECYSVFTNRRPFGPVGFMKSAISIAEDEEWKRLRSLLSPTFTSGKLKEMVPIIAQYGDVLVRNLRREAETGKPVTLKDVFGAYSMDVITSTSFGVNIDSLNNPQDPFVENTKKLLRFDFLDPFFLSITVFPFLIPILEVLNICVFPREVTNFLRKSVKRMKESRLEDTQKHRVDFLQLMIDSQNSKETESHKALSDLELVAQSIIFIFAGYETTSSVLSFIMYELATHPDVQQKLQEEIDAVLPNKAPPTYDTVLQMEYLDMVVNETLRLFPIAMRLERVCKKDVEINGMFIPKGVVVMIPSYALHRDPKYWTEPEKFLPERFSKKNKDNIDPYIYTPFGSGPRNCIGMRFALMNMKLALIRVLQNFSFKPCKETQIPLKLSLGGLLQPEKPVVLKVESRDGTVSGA
# [5] = cytotoxicity toward NIH3T3 fibroblasts, dose response, counter-screen, cell-based, ATP luminescence, mouse fibroblasts (AID 2010); assay type: functional;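 note: cells exposed to compound for about 90 hours before reading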
# [6] = inhibitors of intracellular T. cruzi replication, confirmation, NIH3T3 host cells, beta-gal luminescence (AID 2044); assay type: functional, cell-based;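 note: intracellular parasites grown in NIH/3T3 mouse fibroblasts as host cells; luminescent beta-galactosidase reporter signal from transgenic T. cruzi replicating inside host cells; inhibitors lower the luminescence signal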
# [7] = biological target: T2, Corticotropin-releasing factor receptor 2/Corticotropin-releasing factor-binding protein (Homo sapiens, UniProt P24387+Q13324); test: activators of CRF receptor 2 with binding protein – uHTS hits, confirmation (AID 602473); assay type: functional; settings: read-out: EC50_Mean
# T2 sequence (Q13324 whole entry): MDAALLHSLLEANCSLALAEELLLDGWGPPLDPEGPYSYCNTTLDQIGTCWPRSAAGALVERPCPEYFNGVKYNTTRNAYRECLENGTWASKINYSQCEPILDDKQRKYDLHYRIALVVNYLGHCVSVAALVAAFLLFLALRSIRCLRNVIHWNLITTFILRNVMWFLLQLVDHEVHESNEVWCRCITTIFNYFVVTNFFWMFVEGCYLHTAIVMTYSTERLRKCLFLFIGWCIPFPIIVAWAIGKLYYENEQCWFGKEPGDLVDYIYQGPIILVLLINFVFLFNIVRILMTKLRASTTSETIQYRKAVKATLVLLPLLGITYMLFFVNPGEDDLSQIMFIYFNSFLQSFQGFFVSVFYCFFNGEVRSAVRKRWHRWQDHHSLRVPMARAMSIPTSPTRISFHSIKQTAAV
# T2 sequence (P24387 whole entry): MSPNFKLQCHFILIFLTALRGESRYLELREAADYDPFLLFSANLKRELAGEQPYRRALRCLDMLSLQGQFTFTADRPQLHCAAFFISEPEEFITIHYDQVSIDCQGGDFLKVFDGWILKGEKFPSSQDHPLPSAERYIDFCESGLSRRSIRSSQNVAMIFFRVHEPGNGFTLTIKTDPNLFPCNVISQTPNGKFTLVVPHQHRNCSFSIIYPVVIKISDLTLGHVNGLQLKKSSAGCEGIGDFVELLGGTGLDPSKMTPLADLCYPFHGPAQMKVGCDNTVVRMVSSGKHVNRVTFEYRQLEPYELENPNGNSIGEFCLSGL
# [8] = Luminescence Cell-Based Dose Response HTS to Identify Activators of Luciferase Translation or Activity in H4 […] Cells. [Related pubchem assays: 1829 (Project Summary), 1814 (Primary HTS)]; assay type: functional
structure (smiles),measurement,setting,value
CCOc1ccc(CNC(=O)CCCn2nc(C)c3c(C)n(-c4ccc(C)cc4)nc3c2=O)cc1,EC50,[1],11.4 µM (active)
same,EC50,[2],> 120 µM (not active)
same,EC50,[3],32.2 µM (active)
CC/C(C)=C1\SC(N2CCN(c3cccc(C(F)(F)F)c3)CC2)=NC1=O,EC50,[1],19.9 µM (active)
same,EC50,[2],> 120 µM (not active)
same,EC50,[3],> 120 µM (not active)
CCOC(=O)c1cccc(NC(=O)/C=C/c2ccc3c(c2)OCO3)c1,EC50,[1],2.11 µM (active)
same,EC50,[2],0.361 µM (active)
COc1cccc(NC(=O)NCCCCc2ccccc2)c1,EC50,Streptokinase A,106 µM (active)
same,EC50,[4],> 150 µM (not active)
same,EC50,Streptococcus,> 150 µM (not active)
Cc1c(C)n(C(=O)CN2CCC(C)CC2)c2ccccc12,AC50,Cytochrome P450 3A4,17.8 µM (inconclusive)
COc1ccc(Cl)cc1N=C(S)N(Cc1cccnc1)Cc1ccco1,EC50,[5],> 60 µM (not active)
same,EC50,[6],0.722 µM (active)
Sc1nnc(-c2cc(-c3ccccc3)[nH]n2)n1/N=C/c1ccc(Cl)cc1,EC50,Streptokinase A,> 150 µM (not active)
same,EC50,[4],18 µM (active)
same,EC50,Streptococcus,21.4 µM (active)
Cc1nn(Cc2ccccc2)c(C)c1NC(=O)c1ccc([N+](=O)[O-])cc1[N+](=O)[O-],EC50,[5],> 60 µM (not active)
same,EC50,[6],0.307 µM (active)
Nc1nc2n(n1)C(c1cccc(Br)c1)CC(c1ccc(F)cc1)N2 (stereo not given),EC50,[7],> 53 µM (inactive)
O=C(Cn1c(C(=O)N2CCN(C3CCCCC3)CC2)cc2sccc21)c1ccccc1,EC50,[5],> 60 µM (not active)
same,EC50,[6],2.53 µM (active)
CNC(=O)[C@@H]1O[C@@H](n2cnc3c(NCc4cccc(I)c4)ncnc32)[C@H](O)[C@@H]1O,AC50,Cytochrome P450 3A4,39.8 µM (inconclusive)
Cc1ccc(NC(=N)Nc2nc(C)cc(C)n2)cc1,EC50,[7],9.85 µM (active)
Cc1ccc(C(=O)NCCSc2ccccc2)cc1S(=O)(=O)Nc1ccccc1,EC50,[1],29.3 µM (active)
same,EC50,[2],23.3 µM (active)
same,EC50,[3],> 120 µM (not active)
CN(c1ccc(OCC(=O)Nc2nc(-c3ccccc3)cs2)cc1)S(=O)(=O)c1ccc(F)cc1,EC50,[5],> 60 µM (not active)
same,EC50,[6],1.14 µM (active)
Cc1ccc(NNC(=O)C2CCC2)cc1C,EC50,Streptokinase A,> 150 µM (not active)
same,EC50,[4],> 150 µM (not active)
same,EC50,Streptococcus,> 150 µM (not active)
CCCCN(Cc1cc2cc(OC)ccc2nc1O)S(=O)(=O)c1ccc(C)cc1,EC50,[1],16 µM (active)
same,EC50,[2],11.3 µM (active)
same,EC50,[3],11.1 µM (active)
O=C(NCC1OCCc2ccccc21)c1ccc(NC(=O)c2ccc(Cl)cc2)cc1 (stereo not given),EC50,[1],> 120 µM (not active)
same,EC50,[2],14.2 µM (active)
same,EC50,[3],12.5 µM (active)
Cc1cc(C)c2nc(N(CCCN(C)C)C(=O)c3ccc4c(c3)OCCO4)sc2c1,EC50,[5],54.2 µM (active)
same,EC50,[6],0.5 µM (active)
Cc1nc(-c2ccccc2)sc1-c1ccnn1C,EC50,[8],0.367 µM (active)
O=C(c1cc(-c2ccncc2)nc2ccc(Cl)cc12)N1CCN(Cc2ccc3c(c2)OCO3)CC1,EC50,[5],> 60 µM (not active)
same,EC50,[6],0.152 µM (active)
CCc1ccccc1NC(=S)NCCSc1ccc(Cl)cc1,EC50,Streptokinase A,30.5 µM (active)
CCN(CC)c1ccc(NC(=O)c2ccc3c(c2)c(C)c(C)n3C)cc1,EC50,[5],> 60 µM (not active)
same,EC50,[6],1.63 µM (active)
Cc1cc(C(=O)NCC(=O)OC(C(=O)Nc2cc(C(F)(F)F)ccc2Cl)c2ccccc2)ccc1[N+](=O)[O-] (stereo not given),EC50,Streptokinase A,> 150 µM (not active)
same,EC50,[4],> 150 µM (not active)
same,EC50,Streptococcus,> 150 µM (not active)
NC(=S)N/N=C\c1ccccc1OCc1ccccc1,EC50,[5],> 30 µM (not active)
same,EC50,[6],0.623 µM (active)
O=C(CSc1nnnn1-c1cccc2ccccc12)Nc1ccc(N2CCOCC2)c(Cl)c1,EC50,[5],> 60 µM (inconclusive)
same,EC50,[6],0.457 µM (active)
CCOC(=O)c1ccc(Nc2nc(C)nc3c2nnn3Cc2ccccc2)cc1,EC50,Streptokinase A,> 150 µM (not active)
same,EC50,[4],13.4 µM (active)
same,EC50,Streptococcus,> 150 µM (not active)
C=CCNC(=S)N/N=C/c1ccc(-c2ccc(Cl)cc2Cl)o1,EC50,[5],> 60 µM (not active)
same,EC50,[6],1.6 µM (active)
CC1(C)CC(=O)C=C(Nc2ccc(Br)cn2)C1,EC50,[1],> 120 µM (not active)
same,EC50,[2],> 120 µM (not active)
same,EC50,[3],> 120 µM (not active)
C/C(CCN1CCCc2nc(C)c(C)cc21)=N\OC[C@@H](C)[C@H](OCc1ccccc1)C(C)C,AC50,Cytochrome P450 3A4,3.16 µM (inconclusive)
CC(CCN(C)C)OC(=O)c1ccc(C(C)c2ccccc2)o1 (stereo not given),EC50,[5],> 60 µM (not active)
same,EC50,[6],0.845 µM (active)
O=S(=O)(c1ccccc1)N1CCC2(CCN(c3ncccn3)CC2)CC1,AC50,Cytochrome P450 3A4,31.6 µM (inconclusive)
CCOC(=O)c1sc2nc(Cc3ccc(Cl)cc3)nc(S)c2c1C,EC50,[4],4.03 µM (active)
same,EC50,Streptococcus,> 150 µM (not active)
O=C(C1CCCCC1)N1CCC(c2nc(O)c3nnn(Cc4c(F)cccc4Cl)c3n2)CC1,EC50,Streptokinase A,> 150 µM (not active)
same,EC50,[4],4.19 µM (active)
same,EC50,Streptococcus,9.82 µM (active)
COc1ccc(CCn2c(C(C)C)nc3c(c(=O)c4ccccc4n3C)c2=O)cc1,EC50,[7],7.87 µM (active)
CO[C@H]1COC(=O)C/C=C\[C@H](C)COC(=O)[C@@H](OCc2ccccc2)/C=C\[C@@H]1C,AC50,Cytochrome P450 3A4,3.98 µM (inconclusive)
O[Si@](CCCN1CCCCC1)(c1ccc(F)cc1)C1CCCCC1,AC50,Cytochrome P450 3A4,3.98 µM (inconclusive)
COc1cc([C@@H]2c3cc4c(cc3[C@@H](O)[C@@H](CO)[C@@H]2CO)OCO4)cc(OC)c1O[Si](C)(C)C(C)(C)C,EC50,[1],15.9 µM (active)
same,EC50,[2],39.1 µM (active)
same,EC50,[3],11.5 µM (active)
COc1ccc(-c2cc(C(F)(F)F)n3ncc(C(=O)N4CCc5ccccc5C4)c3n2)cc1,EC50,[5],> 60 µM (not active)
same,EC50,[6],1.84 µM (active)
OCCN1CCN(Cc2cccc(Oc3ccc(Cl)cc3)c2)CC1,EC50,[5],> 60 µM (not active)
same,EC50,[6],3.92 µM (active)
CCOC(=O)c1sc(NC(=O)c2ccc(S(=O)(=O)N(C)C)cc2)cc1C,EC50,[5],8.88 µM (active)
same,EC50,[6],2.21 µM (active)
CCc1cccc(C)c1NC(=O)COC(=O)c1c2c(nc3ccccc13)/C(=C\c1cccs1)CCC2,EC50,[5],> 60 µM (not active)
same,EC50,[6],2.22 µM (active)
C[C@@H]1O[C@@H]2C3=C(C(=O)[C@H]4O[C@@H]4[C@H]3O)C1[C@@H]1[C@@H](C)OC=C3[C@H](O)[C@H]4O[C@@H]4/C(=N\OCc4ccccc4)[C@@]321,AC50,Cytochrome P450 3A4,6.31 µM (inconclusive)
CCc1ccccc1N=C(S)NCCSc1ccc(Cl)cc1,EC50,[4],19.9 µM (active)
same,EC50,Streptococcus,> 150 µM (not active)
O=c1c(-c2cc(F)cc(F)c2)nc2cncnc2n1Cc1ccc(F)cc1,AC50,Cytochrome P450 3A4,10 µM (inconclusive)
O=C(COC(=O)Cc1cn2ccsc2n1)Nc1nc2ccccc2s1,EC50,Streptokinase A,> 150 µM (not active)
same,EC50,[4],2.64 µM (active)
same,EC50,Streptococcus,6.72 µM (active)
Clc1ccc(-c2csc(Nc3cccnc3)n2)cc1,EC50,[5],> 60 µM (not active)
same,EC50,[6],0.3 µM (active)
Cc1ccc(Cn2nnc(C(=O)Nc3cccc(C)c3C)c2N)cc1,EC50,[7],7.98 µM (active)
O=C(Oc1ccccc1)N1CCC2(CC1)CN(c1ccncc1)C2,AC50,Cytochrome P450 3A4,15.8 µM (inconclusive)
